From patent US20230085307A1, “PYRIDAZINONE COMPOUND AND HERBICIDE” (NISSAN CHEMICAL CORPORATION, priority 2019, published 2023)

How the values were obtained:
redroot pigweed [1] = assay: Test Example 5: herbicidal effect by foliage application, plastic box (Table 20, symbol N); assay type: in vivo, redroot pigweed (Amaranthus retroflexus); conditions: foliage application, 320 g/ha
How it was run: (§1)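 Plants were sown into sterilized diluvial soil under about 1.5 cm cover and kept in a greenhouse at 25° C. to 30° C. Fourteen days on, foliage received an even spray of the diluted emulsion. Herbicidal or crop effect was judged three weeks afterwards.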

barnyard grass [2] = assay: Test Example 4: herbicidal effect by soil treatment (Table 19, symbol H); assay type: in vivo, barnyard grass (Echinochloa crus-galli); conditions: amount of applied herbicide 320 g/ha
How it was run: (§2)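 Pre-emergence style soil spray: seeds under ~1.5 cm sterilized diluvial soil received a uniform coat of emulsion diluted to the predetermined herbicide amount. Greenhouse 25–30° C; readout at week three on previously defined criteria.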

false cleavers [3] = assay: Test Example 5: herbicidal effect by foliage application, plastic box (Table 20, symbol Q); assay type: in vivo, false cleavers (Galium spurium); conditions: foliage application, 320 g/ha
How it was run: as §1

southern crabgrass [4] = assay: Test Example 4: herbicidal effect by soil treatment (Table 19, symbol F); assay type: in vivo, southern crabgrass (Digitaria ciliaris); conditions: amount of applied herbicide 320 g/ha
How it was run: as §2

lambsquarters [5] = assay: Test Example 5: herbicidal effect by foliage application, plastic box (Table 20, symbol O); assay type: in vivo, lambsquarters (Chenopodium album); conditions: foliage application, 320 g/ha
How it was run: as §1

green foxtail [6] = assay: Test Example 5: herbicidal effect by foliage application, plastic box (Table 20, symbol G); assay type: in vivo, green foxtail (Setaria viridis); conditions: foliage application, 320 g/ha
How it was run: as §1

windgrass [7] = assay: Test Example 5: herbicidal effect by foliage application, plastic box (Table 20, symbol L); assay type: in vivo, windgrass (Apera spica-venti); conditions: foliage application, 320 g/ha
How it was run: as §1

persian speedwell [8] = assay: Test Example 4: herbicidal effect by soil treatment (Table 19, symbol R); assay type: in vivo, Persian speedwell (Veronica persica); conditions: amount of applied herbicide 320 g/ha
How it was run: as §2

wild oat [9] = assay: Test Example 4: herbicidal effect by soil treatment (Table 19, symbol I); assay type: in vivo, wild oat (Avena fatua); conditions: amount of applied herbicide 320 g/ha
How it was run: as §2

Italian ryegrass [10] = assay: Test Example 4: herbicidal effect by soil treatment (Table 19, symbol K); assay type: in vivo, Italian ryegrass (Lolium multiflorum); conditions: amount of applied herbicide 320 g/ha
How it was run: as §2

chickweed [11] = assay: Test Example 5: herbicidal effect by foliage application, plastic box (Table 20, symbol P); assay type: in vivo, common chickweed (Stellaria media); conditions: foliage application, 320 g/ha
How it was run: as §1

lambsquarters [12] = assay: Test Example 4: herbicidal effect by soil treatment (Table 19, symbol O); assay type: in vivo, lambsquarters (Chenopodium album); conditions: amount of applied herbicide 320 g/ha
How it was run: as §2

Italian ryegrass [13] = assay: Test Example 5: herbicidal effect by foliage application, plastic box (Table 20, symbol K); assay type: in vivo, Italian ryegrass (Lolium multiflorum); conditions: foliage application, 320 g/ha
How it was run: as §1

barnyard grass [14] = assay: Test Example 5: herbicidal effect by foliage application, plastic box (Table 20, symbol H); assay type: in vivo, barnyard grass (Echinochloa crus-galli); conditions: foliage application, 320 g/ha
How it was run: as §1

persian speedwell [15] = assay: Test Example 5: herbicidal effect by foliage application, plastic box (Table 20, symbol R); assay type: in vivo, Persian speedwell (Veronica persica); conditions: foliage application, 320 g/ha
How it was run: as §1

velvetleaf [16] = assay: Test Example 5: herbicidal effect by foliage application, plastic box (Table 20, symbol M); assay type: in vivo, velvetleaf (Abutilon theophrasti); conditions: foliage application, 320 g/ha
How it was run: as §1

barnyard grass [17] = assay: Test Example 3: herbicidal effect by foliage application, Wagner pot (Table 18, symbol H); assay type: in vivo, barnyard grass (Echinochloa crus-galli); conditions: amount of applied herbicide 320 g/ha
How it was run: (§3)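 Plants were sown in alluvial soil held under 0.1–0.5 cm standing water and grown 14 days in a greenhouse at 25–30 °C. An emulsifiable formulation, water-diluted to the set dose, was then sprayed onto the foliage, and effects were scored three weeks later using previously defined criteria.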

rice flat sedge = assay: Test Example 3: herbicidal effect by foliage application, Wagner pot (Table 18, symbol E); assay type: in vivo, rice flat sedge (Cyperus iria); conditions: amount of applied herbicide 320 g/ha
How it was run: as §3

windgrass [18] = assay: Test Example 4: herbicidal effect by soil treatment (Table 19, symbol L); assay type: in vivo, windgrass (Apera spica-venti); conditions: amount of applied herbicide 320 g/ha
How it was run: as §2

velvetleaf [19] = assay: Test Example 4: herbicidal effect by soil treatment (Table 19, symbol M); assay type: in vivo, velvetleaf (Abutilon theophrasti); conditions: amount of applied herbicide 320 g/ha
How it was run: as §2

wild oat [20] = assay: Test Example 5: herbicidal effect by foliage application, plastic box (Table 20, symbol I); assay type: in vivo, wild oat (Avena fatua); conditions: foliage application, 320 g/ha
How it was run: as §1

southern crabgrass [21] = assay: Test Example 5: herbicidal effect by foliage application, plastic box (Table 20, symbol F); assay type: in vivo, southern crabgrass (Digitaria ciliaris); conditions: foliage application, 320 g/ha
How it was run: as §1

Chinese sprangletop = assay: Test Example 3: herbicidal effect by foliage application, Wagner pot (Table 18, symbol D); assay type: in vivo, chinese sprangletop (Leptochloa chinensis); conditions: amount of applied herbicide 320 g/ha
How it was run: as §3

blackgrass [22] = assay: Test Example 5: herbicidal effect by foliage application, plastic box (Table 20, symbol J); assay type: in vivo, blackgrass (Alopecurus myosuroides); conditions: foliage application, 320 g/ha
How it was run: as §1

chickweed [23] = assay: Test Example 4: herbicidal effect by soil treatment (Table 19, symbol P); assay type: in vivo, common chickweed (Stellaria media); conditions: amount of applied herbicide 320 g/ha
How it was run: as §2

blackgrass [24] = assay: Test Example 4: herbicidal effect by soil treatment (Table 19, symbol J); assay type: in vivo, blackgrass (Alopecurus myosuroides); conditions: amount of applied herbicide 320 g/ha
How it was run: as §2

false cleavers [25] = assay: Test Example 4: herbicidal effect by soil treatment (Table 19, symbol Q); assay type: in vivo, false cleavers (Galium spurium); conditions: amount of applied herbicide 320 g/ha
How it was run: as §2

green foxtail [26] = assay: Test Example 4: herbicidal effect by soil treatment (Table 19, symbol G); assay type: in vivo, green foxtail (Setaria viridis); conditions: amount of applied herbicide 320 g/ha
How it was run: as §2

redroot pigweed [27] = assay: Test Example 4: herbicidal effect by soil treatment (Table 19, symbol N); assay type: in vivo, redroot pigweed (Amaranthus retroflexus); conditions: amount of applied herbicide 320 g/ha
How it was run: as §2

[28] = evaluated three weeks after application

For `COc1cc(F)ccc1-c1sc2ccc(C)cc2c1-c1c(O)c(C)nn(C)c1=O` [2-148], the “herbicidal effect on N: redroot pigweed (criteria 0-5)” value (redroot pigweed [1]; [28]) was 5 (Herbicidal rate of 90% or more (almost completely withered)), the “H: barnyard grass, herbicidal effect rating” value (barnyard grass [2]) was 4 (Herbicidal rate of 70% or more and less than 90%) and the “herbicidal effect on Q: false cleavers (criteria 0-5)” value (false cleavers [3]; [28]) was 5 (Herbicidal rate of 90% or more (almost completely withered)). For the same molecule, the “F: southern crabgrass, herbicidal effect rating” value (southern crabgrass [4]) was 3 (Herbicidal rate of 40% or more and less than 70%), the “herbicidal effect on O: lambsquarters (criteria 0-5)” value (lambsquarters [5]; [28]) was 4 (Herbicidal rate of 70% or more and less than 90%) and the “herbicidal effect on G: green foxtail (criteria 0-5)” value (green foxtail [6]; [28]) was 5 (Herbicidal rate of 90% or more (almost completely withered)). The “herbicidal effect on L: windgrass (criteria 0-5)” value (windgrass [7]; [28]) was 3 (Herbicidal rate of 40% or more and less than 70%), the “R: persian speedwell, herbicidal effect rating” value (persian speedwell [8]) was 5 (Herbicidal rate of 90% or more (almost completely withered)) and the “I: wild oat, herbicidal effect rating” value (wild oat [9]) was 0 (Herbicidal rate of 5% or less (almost no effect)). For the same molecule, the “K: Italian ryegrass, herbicidal effect rating” value (Italian ryegrass [10]) was 1 (Herbicidal rate of 5% or more and less than 20%), the “herbicidal effect on P: chickweed (criteria 0-5)” value (chickweed [11]; [28]) was 5 (Herbicidal rate of 90% or more (almost completely withered)) and the “O: lambsquarters, herbicidal effect rating” value (lambsquarters [12]) was 5 (Herbicidal rate of 90% or more (almost completely withered)). For the same molecule, the “herbicidal effect on K: Italian ryegrass (criteria 0-5)” value (Italian ryegrass [13]; [28]) was 4 (Herbicidal rate of 70% or more and less than 90%), the “herbicidal effect on H: barnyard grass (criteria 0-5)” value (barnyard grass [14]; [28]) was 5 (Herbicidal rate of 90% or more (almost completely withered)) and the “herbicidal effect on R: persian speedwell (criteria 0-5)” value (persian speedwell [15]; [28]) was 5 (Herbicidal rate of 90% or more (almost completely withered)). The “herbicidal effect on M: velvetleaf (criteria 0-5)” value (velvetleaf [16]; [28]) was 4 (Herbicidal rate of 70% or more and less than 90%), the “herbicidal effect on H: barnyard grass” value (barnyard grass [17]) was 5 (Herbicidal rate of 90% or more (almost completely withered)) and the “herbicidal effect on E: rice flat sedge” value (rice flat sedge) was 5 (Herbicidal rate of 90% or more (almost completely withered)). The “L: windgrass, herbicidal effect rating” value (windgrass [18]) was 0 (Herbicidal rate of 5% or less (almost no effect)), the “M: velvetleaf, herbicidal effect rating” value (velvetleaf [19]) was 3 (Herbicidal rate of 40% or more and less than 70%) and the “herbicidal effect on I: wild oat (criteria 0-5)” value (wild oat [20]; [28]) was 3 (Herbicidal rate of 40% or more and less than 70%). For the same molecule, the “herbicidal effect on F: southern crabgrass (criteria 0-5)” value (southern crabgrass [21]; [28]) was 5 (Herbicidal rate of 90% or more (almost completely withered)), the “herbicidal effect on D: Chinese sprangletop” value (Chinese sprangletop) was 3 (Herbicidal rate of 40% or more and less than 70%) and the “herbicidal effect on J: blackgrass (criteria 0-5)” value (blackgrass [22]; [28]) was 4 (Herbicidal rate of 70% or more and less than 90%). For the same molecule, the “P: chickweed, herbicidal effect rating” value (chickweed [23]) was 5 (Herbicidal rate of 90% or more (almost completely withered)), the “J: blackgrass, herbicidal effect rating” value (blackgrass [24]) was 3 (Herbicidal rate of 40% or more and less than 70%) and the “Q: false cleavers, herbicidal effect rating” value (false cleavers [25]) was 5 (Herbicidal rate of 90% or more (almost completely withered)).

In the case of `CCCC(=O)Oc1c(C)nn(C)c(=O)c1-c1c(-c2ccc(OCC)cc2)sc2cc(OC)ccc12` [3-073], the “N: redroot pigweed, herbicidal effect grade” value (redroot pigweed [1]; three weeks after application) is reported as 3 (Herbicidal rate of 40% or more and less than 70%), the “H: barnyard grass, herbicidal effect grade” value (barnyard grass [2]) is reported as 3 (Herbicidal rate of 40% or more and less than 70%) and the “Q: false cleavers, herbicidal effect grade” value (false cleavers [3]; three weeks after application) is reported as 4 (Herbicidal rate of 70% or more and less than 90%). For the same molecule, the “G: green foxtail, herbicidal effect grade” value (green foxtail [26]) was 3 (Herbicidal rate of 40% or more and less than 70%), the “F: southern crabgrass, herbicidal effect grade” value (southern crabgrass [4]) was 3 (Herbicidal rate of 40% or more and less than 70%) and the “O: lambsquarters, herbicidal effect grade” value (lambsquarters [5]; three weeks after application) was 2 (Herbicidal rate of 20% or more and less than 40%). For the same molecule, the “G: green foxtail, herbicidal effect grade” value (green foxtail [6]; three weeks after application) was 0 (Herbicidal rate of 5% or less (almost no effect)), the “L: windgrass, herbicidal effect grade” value (windgrass [7]; three weeks after application) was 0 (Herbicidal rate of 5% or less (almost no effect)) and the “R: persian speedwell, herbicidal effect grade” value (persian speedwell [8]) was 4 (Herbicidal rate of 70% or more and less than 90%). For the same molecule, the “I: wild oat, herbicidal effect grade” value (wild oat [9]) was 0 (Herbicidal rate of 5% or less (almost no effect)), the “K: Italian ryegrass, herbicidal effect grade” value (Italian ryegrass [10]) was 0 (Herbicidal rate of 5% or less (almost no effect)) and the “P: chickweed, herbicidal effect grade” value (chickweed [11]; three weeks after application) was 5 (Herbicidal rate of 90% or more (almost completely withered)). For the same molecule, the “N: redroot pigweed, herbicidal effect grade” value (redroot pigweed [27]) was 4 (Herbicidal rate of 70% or more and less than 90%), the “O: lambsquarters, herbicidal effect grade” value (lambsquarters [12]) was 3 (Herbicidal rate of 40% or more and less than 70%) and the “K: Italian ryegrass, herbicidal effect grade” value (Italian ryegrass [13]; three weeks after application) was 0 (Herbicidal rate of 5% or less (almost no effect)). For the same molecule, the “H: barnyard grass, herbicidal effect grade” value (barnyard grass [14]; three weeks after application) was 0 (Herbicidal rate of 5% or less (almost no effect)), the “R: persian speedwell, herbicidal effect grade” value (persian speedwell [15]; three weeks after application) was 5 (Herbicidal rate of 90% or more (almost completely withered)) and the “M: velvetleaf, herbicidal effect grade” value (velvetleaf [16]; three weeks after application) was 3 (Herbicidal rate of 40% or more and less than 70%). The “L: windgrass, herbicidal effect grade” value (windgrass [18]) was 0 (Herbicidal rate of 5% or less (almost no effect)), the “M: velvetleaf, herbicidal effect grade” value (velvetleaf [19]) was 0 (Herbicidal rate of 5% or less (almost no effect)) and the “I: wild oat, herbicidal effect grade” value (wild oat [20]; three weeks after application) was 0 (Herbicidal rate of 5% or less (almost no effect)). The “F: southern crabgrass, herbicidal effect grade” value (southern crabgrass [21]; three weeks after application) was 2 (Herbicidal rate of 20% or more and less than 40%), the “J: blackgrass, herbicidal effect grade” value (blackgrass [22]; three weeks after application) was 0 (Herbicidal rate of 5% or less (almost no effect)) and the “P: chickweed, herbicidal effect grade” value (chickweed [23]) was 4 (Herbicidal rate of 70% or more and less than 90%). For the same molecule, the “J: blackgrass, herbicidal effect grade” value (blackgrass [24]) was 0 (Herbicidal rate of 5% or less (almost no effect)) and the “Q: false cleavers, herbicidal effect grade” value (false cleavers [25]) was 2 (Herbicidal rate of 20% or more and less than 40%).
